The test system of one test is K. pneumoniae CMCC 3077. The experiment in a line: growth on nutrient agar, mixed culture with S. aureus (Example 6). In kind it is cell-based, Klebsiella pneumoniae. Conditions: K. pneumoniae in mixed culture with S. aureus. From the text: Example 1 was repeated, this time using a mixed culture of K. pneumoniae CMCC 3077 and S. aureus OCC 102. The results for growth in the presence of AEP or alaphosphin are shown in FIGS. 7 and 8 respectively: empty columns represent growth of S. aureus, the shaded columns represent growth of K. pneumoniae. […] Accordingly, there is a considerable alaphosphin concentration range over which S. aureus will readily grow whilst K. pneumoniae will be inhibited. Even if K. pneumoniae cells lyse due to the toxic effect of AEP released intracellularly, the AEP is not toxic for S. aureus at the concentrations involved.

The next test deals with E. faecalis OCC 604. The test is described as follows: growth on nutrient agar, mixed culture with S. aureus (Example 7). In kind it is cell-based, Enterococcus faecalis. Conditions: E. faecalis in mixed culture with S. aureus. From the text:
Example 6 was repeated, this time using a mixed culture of S. aureus OCC 102 and E. faecalis OCC 604, in the presence of AEP or alaphosphin. The empty columns represent growth of S. aureus, the shaded columns represent growth of E. faecalis. […] Thus alaphosphin could be used, when incorporated at an appropriate concentration in a medium, to inhibit growth of organisms such as Enterococci in samples whilst allowing Staphylococci to grow and be detected.

Test [1] has as its system Salmonella typhimurium 722. The experiment in a line: MIC / growth in DMSal (Example 16). It is filed as cell-based. Conditions: Salmonella typhimurium 722, DMSal, 1.5 μg/ml. Here is the method: (§1) The experiments were conducted as follows: nutrient agar medium was autoclaved and, on cooling (but prior to setting) filter-sterilised alaphosphin or AEP were incorporated at final concentrations of 1 mM, 2 mM, 5 mM and 10 mM, and the medium used to pour plates. Control plates were prepared using nutrient agar without alaphosphin or AEP. A single colony of the organism under test was inoculated in 10 ml of nutrient broth and incubated (without agitation) at 37° C. for 4 hours.
(§2) Trp-AEP was compared to alaphosphin (Ala-AEP) for selective growth of Salmonella strains on DMSal agar.

The subject of a further test is Klebsiella aerogenes 323. The experiment in a line: MIC / growth in DMSal (Example 16). Conditions: Klebsiella aerogenes 323, DMSal, 1.5 μg/ml. In kind it is cell-based. Here is the method:
as §1, §2

The test system of another test is Salmonella arizonae 1200. The test is described as follows: MIC / growth in DMSal (Example 16). Conditions: Salmonella arizonae 1200, DMSal, 1.5 μg/ml. In kind it is cell-based. Here is the method:
as §1, §2

In a further test the test system is Serratia marcescens 217. The test is described as follows: MIC / growth in DMSal (Example 16). It is filed as cell-based. Conditions: Serratia marcescens 217, DMSal, 1.5 μg/ml. Here is the method: as §1, §2
The test system of test [2] is Klebsiella pneumoniae 411. The test is described as follows: MIC / growth in DMSal (Example 16). In kind it is cell-based. Conditions: Klebsiella pneumoniae 411, DMSal, 1.5 μg/ml. Here is the method:
as §1, §2

The next test has as its system Salmonella virchow 703. The experiment in a line: MIC / growth in DMSal (Example 16). Conditions: Salmonella virchow 703, DMSal, 1.5 μg/ml. In kind it is cell-based. The procedure:
as §1, §2

Test [3] relates to Salmonella enteriditis 723. The test is described as follows: MIC / growth in DMSal (Example 16). It is filed as cell-based. Conditions: Salmonella enteriditis 723, DMSal, 1.5 μg/ml. Here is the method: as §1, §2
Another test has as its system Citrobacter freundii 370. The test is described as follows: MIC / growth in DMSal (Example 16). It is filed as cell-based. Conditions: Citrobacter freundii 370, DMSal, 1.5 μg/ml. The procedure:
as §1, §2

Test [4] concerns S. indiana OCC 2412 and S. worthington OCC 634. The experiment in a line: Bioscreen growth in Lab-Lemco broth (Example 11), Salmonella strains. It is filed as cell-based. Conditions: 64 μg/ml, Lab-Lemco broth pH 5.7, 37° C. Here is the method: Thus, Ala-AEP was dissolved in deionised water (7.0 mg/ml), filter sterilised, and an amount of the solution added to autoclaved Lab-Lemco broth (20 g/l; pH 5.7) to give a concentration of 70 μg/ml. Volumes (300 μl) of this solution were then pipetted into the wells of Bioscreen microtitre plates and 30 μl quantities of 1 in 10,000 dilutions of overnight cultures added (reducing the final alaphosphin concentration to 64 μg/m). Plates were then covered, incubated at 37° C., and the opacity of the organism suspensions measured using a Bioscreen instrument. Growth of the Salmonella strains was unaffected whereas the E. coli strains were all inhibited.
Typical results are shown in FIG. 16, which is a graph of Optical Density against time (hours). Growth of S. indiana OCC 2412 and S. worthington OCC 634 is denoted by crosses and circles respectively.

Test [5] has as its system Bacillus subtilis strain OCC 214. The experiment in a line: growth on nutrient agar streak plates, pure culture (Example 1). It is filed as cell-based. Conditions: B. subtilis OCC214, nutrient agar, 0-10 mM tested. From the text:
In example 1 the sensitivity of Bacillus subtilis strain OCC 214 to alaphosphin or AEP was investigated. […] The organism is known to be LALA-ve, so the observations agree with the known characteristics of the organism.

In test [6] the test system is Klebsiella pneumoniae CMCC 3077. The test is described as follows: growth on nutrient agar streak plates, pure culture (Example 4). It is filed as cell-based. Conditions: K. pneumoniae CMCC 3077, nutrient agar, 0-10 mM tested. From the text:
Example 1 was repeated using Klebsiella pneumoniae CMCC 3077 as the test organism. The results are shown in FIG. 5, and are qualitatively similar to those obtained in example 2.

The test system of test [7] is Enterococcus faecalis 501. The test is described as follows: MIC in DMSal medium (Example 17). It is filed as cell-based. Conditions: Enterococcus faecalis, 501.
Test [8] deals with Enterococcus faecalis OCC 640. The test is described as follows: growth on nutrient agar streak plates, pure culture (Example 3). It is filed as cell-based. Conditions: E. faecalis OCC 640, nutrient agar, 0-10 mM tested. From the text:
Example 1 was repeated using Enterococcus faecalis OCC 640 as the test organism.

A further test relates to E. coli 607. The test is described as follows: MIC in DMSal medium (Example 17). In kind it is cell-based. Conditions: Escherichia coli, 607.
In test [9] the test system is Salmonella typhimurium 722. The experiment in a line: MIC in DMSal medium (Example 17). It is filed as cell-based. Conditions: Salmonella enterica, TYPHIMURIUM
The procedure:
Isoleucyl-AEP and sarcosyl-alanyl-AEP were compared to ala-AEP (all in DMSal medium) for the ability to selectively recover two clinically important pathogenic bacteria: Salmonella and Staphylococcus aureus.
For selective growth of Salmonella inhibition of Citrobacter, Enterobacter sakazakii and E. coli is important. […] Sarcosyl-alanyl-AEP used at a concentration of 1.0 μg/ml is sufficient to inhibit the growth of all three undesired bacteria while having no effect on growth of Salmonella typhimurium. […] Alternatively, a concentration of 2.0 μg/ml of isoleucyl-AEP is required to inhibit the growth of Citrobacter, Enterobacter sakazakii and E. coli and this concentration has no effect on the Salmonella typhimurium strain tested.

In the next test the test system is Enterococcus faecium 220. The test is described as follows: MIC in DMSal medium (Example 17). It is filed as cell-based. Conditions: Enterococcus faecium, 220.

≈ marks a conversion by molar mass, not a printed value.

The MIC is the smallest concentration in the dilution series that meets the test's criterion for growth inhibition. A higher MIC goes with weaker potency. Consider `C[C@H](N)C(=O)N[C@@H](C)P(=O)(O)O` [alaphosphin, L-alanyl-L-1-aminoethylphosphonic acid], for which the “concentration at which growth is completely inhibited” value with K. pneumoniae CMCC 3077 is listed as “above 1 mM”; in [6] it was at least 2 mM; in test [8] it was at least 2 mM. The “concentration causing complete inhibition” value in the test with E. faecalis OCC 604 was at least 2 mM. For the same compound, the “growth with Ala-AEP (1.5 μg/ml)” value (in [1]; in the test with Klebsiella aerogenes 323; in the test with Salmonella arizonae 1200; with Serratia marcescens 217; in test [2]; in the test on Salmonella virchow 703) was “Growth” throughout. Further, the “growth with Ala-AEP (1.5 μg/ml)” value (in [3]; with Citrobacter freundii 370) was “Growth” throughout. Moreover, the “growth (optical density) in presence of the agent” value in test [4] is recorded as “unaffected”. In addition, the “sensitivity of growth (in words)” value in test [5] was “completely insensitive”. For the same compound, the MIC in test [7] is 10 µg/mL (≈ 51 µM); with E. coli 607, 0.1 µg/mL (≈ 0.51 µM); in [9], 2 µg/mL (≈ 10.2 µM); against Enterococcus faecium 220, over 50 µg/mL.

The values are drawn from patent US20130189764A1, “SELECTIVE GROWTH MEDIA” (Oxide Limited, priority 2000, published 2013).
